These results are taken from ChEMBL document CHEMBL5375991, “Bioorthogonal Bond Cleavage Chemistry for On-demand Prodrug Activation: Opportunities and Challenges” (J Med Chem, 2023).

Structures are written as SMILES.

The nature of data set [1]: Stability of compound in 3% DMSO/PBS measured after 24 hrs relative to control. It counts as physicochemical. The note with it: read-out: Stability.
Data set [2] is described as follows: Stability in human plasma measured after 4 hrs. It counts as ADME, cell-free. The settings on record: read-out: Stability.

With `O=C(O)c1ccc(-c2[s+]c(-c3ccc(N(c4ccccc4)c4ccccc4)cc3)sc2[O-])cc1`, the remaining at 24 h in data set [1] is 47.6%. Regarding `CCC[N+]1=C(/C=C/C2=C3Oc4cc(NC(=O)O[C@@H]5/C=C/CCCCC5)ccc4C=C3CCC2)C(C)(C)c2ccccc21`, the remaining at 4 h in data set [2] stood at 77%.
